# Data reported in patent US20230043678A1, “USE OF 5-METHYLTETRAHYDROFOLATE” (priority 2019, published 2023).
# Legend:
# [1] = test system: congenital heart defects in offspring; conditions: cited from earlier work
# fetal rat heart = assay: Effect of high-dose folic acid on fetal rat heart, histopathology (Example 8); type: in vivo, SD rats; conditions: for Development delay / Malformation cases / Malformation rate / Sparse myocardial trabeculae / Ventricular defects/septal defects: fetal rats
# Description: 28 each of female and male adult healthy SD rats, weighing about 200-250 g, were purchased from SPF (Beijing) biotechnology co., LTD. After all animals were purchased, general physiological indicators, body weight and feeding of the animals were observed. The animals were adaptively fed for one week. […] The animals were fed day and night in natural lighting, and at a room temperature of 18-26° C. and a relative humidity of 40%-70%.
# The obtained 16 pregnant mice were randomly divided into 4 groups with 4 rats in each group according to body weight: a normal group, a high-dose folic acid group, a middle-dose folic acid group and a low-dose folic acid group. The high-dose folic acid (36.44 mg/kg) group, the middle-dose folic acid (18.22 mg/kg) group, the low-dose folic acid (9.11 mg/kg) group and a blank control group were separately set. The pregnant mice were intragastrically administrated with a 1 ml/100 g solution. The pregnant mice were given pure water in the normal group. The pregnant mice in the other groups started to be administrated on the 2nd day after grouping once a day for 21 consecutive days. The pregnant mice in each group freely ate and drunk. After the female rats were administrated for 7 days, male and female rats were mated in a cage at a ratio of 1:1 overnight, a vaginal plug was checked the next morning, a day when the vaginal plug was found was regarded as day 0 of pregnancy, the pregnant mice were separately fed and administrated for 21 consecutive days, and a fetus was obtained by cesarean section.
# Routine histopathologic paraffin sample preparation, serial section (a thickness of 5 μm) and HE staining were conducted. Sample preparation: routine histopathologic paraffin sample sections were prepared and each sample was 1 paraffin block; and section: each numbered sample had 20 sections. A starting point of mounting was when the paraffin block was sliced, there were ventricular mounting slices and 4 consecutive tissue points were mounted on each glass slide on average. HE staining: there were 20 glass slides for each sample and every other 1 slide was taken for HE staining, a total of 10 slides. Observation and analysis: Leica panoramic image acquisition and comparative analysis were conducted. Fetal rat hearts were dissected and sliced for observation, and the results were as follows.
# heart of fetal mice = assay: Effects of folic acid and 5-methyltetrahydrofolate on heart development of fetal/neonatal mice, histology (Example 10); conditions: mouse, in vivo
# Description: 75 7-week-old female C57BL/6J mice and 25 8-week-old male C57BL/6J mice were provided by Shanghai Lingchang Biotechnology Co., Ltd. with a certificate number of SCXK (Shanghai) 2018-0003. […] The female mice were randomly divided into 5 groups according to body weight: a solvent control group, a folic acid (151.66 μg/kg) group, a folic acid (303.32 μg/kg) group, a calcium 5-methyltetrahydrofolate (converted to folic acid, 151.66 μg/kg) group and a calcium 5-methyl tetrahydrofolate (converted to folic acid, 303.32 μg/kg) group. 1.1275 unit mass of the calcium 5-methyltetrahydrofolate equaled to 1 unit mass of the folic acid.
# 15 mice were in each group and numbered by a toe clipping method. The mice were intragastrically administrated once a day on the second day after grouping. One week after the pre-administration, male and female mice were caged at a ratio of […], a vaginal plug was observed every day from the next day, and a day when the vaginal plug was seen was recorded as day 0.5 of pregnancy. After 14 days of caging, the female mice stopped the administration, the male mice were removed, and the pregnant female mice were fed alone until litter.
# After the detection, thoracic and abdominal cavities of the mice were dissected, cardiac morphology and beating were observed under a stereoscopic microscope (SMZ168, Motic, Xiamen, Fujian, China), and photographs and video recordings were taken (Motic Image Plus 3.0, Motic, Xiamen, Fujian, China). The mice were sacrificed and the hearts, the livers, the kidneys and the lungs were harvested. The hearts and the livers of the neonatal mice were selected from each group and fixed with 4% paraformaldehyde, the fixed hearts and livers were embedded in paraffin, the embedded hearts and livers were sliced and the slices were stained with H&E. A half of the other tissues were immersed in RNA later for fixation and the other half were directly immersed in liquid nitrogen and frozen for a subsequent experiment.
# 1-day-old neonatal mice were sacrificed, the hearts were taken and fixed with 4% paraformaldehyde, the fixed hearts were embedded in paraffin, the embedded hearts were sliced, the slices were stained with H&E and pictures were taken under a normal microscope.
# [2] = folic acid 9.11 mg/kg intragastric
# [3] = folic acid 18.22 mg/kg intragastric
# [4] = folic acid 36.44 mg/kg intragastric
smiles,measurement,setting,value
"Nc1nc2ncc(CNc3ccc(C(=O)N[C@@H](CCC(=O)O)C(=O)O)cc3)nc2c(=O)[nH]1 [FA, pteroylglutamic acid]",reduction of risk of CHD,"[1]; folic acid supplementation, hospital case-control studies in Guangdong, Hubei, Fujian and Shanxi",65%
same,lower risk of giving birth to infants with heart defects,"[1]; women taking folic acid, case-control study, north of the Netherlands",approximately 20%
same,Development delay,fetal rat heart; [2],1
same,Malformation cases,fetal rat heart; [2],3
same,Malformation rate,fetal rat heart; [2],10.7%
same,Sparse myocardial trabeculae,fetal rat heart; [2],1
same,Ventricular defects/septal defects,fetal rat heart; [2],3
same,Development delay,fetal rat heart; [3],1
same,Malformation cases,fetal rat heart; [3],4
same,Malformation rate,fetal rat heart; [3],15.4%
same,Sparse myocardial trabeculae,fetal rat heart; [3],2
same,Ventricular defects/septal defects,fetal rat heart; [3],2
same,Development delay,fetal rat heart; [4],3
same,Malformation cases,fetal rat heart; [4],4
same,Malformation rate,fetal rat heart; [4],25%
same,Sparse myocardial trabeculae,fetal rat heart; [4],1
same,Ventricular defects/septal defects,fetal rat heart; [4],4
same,litter rate of rats,"fetal rat heart; folic acid, high dose",reduce the litter rate under a high dose
same,ventricular septum disappeared (number of animals),fetal rat heart; high-dose folic acid group 36.44 mg/kg,1
same,heart slices (H&E) of 1-day-old neonatal mice,heart of fetal mice,A small block of a heart wall was defective
